Data taken from patent US6589946B2, “Bile salt conjugates” (Galmed International Limited, priority 1998, dated 2003).

Legend:
[1] = Cholesterol crystal mass in model bile
Procedure: (§1) EYL, cholesterol and Na-TC mixtures were dissolved in CHCl3/CH3OH (2:1 v/v), dried under N2 at room temperature, lyophilized overnight and kept at −20°C. under argon until used. Model bile solutions were prepared by suspending the dried lipids in 150 mM NaCl, 1.5 mM disodium EDTA, 50 mM Tris-HCl pH 8.0 and incubating the suspension at 55° C. for 1 hour. The solubilized model biles were incubated, in sealed vials under argon, at 37° C. for the duration of the experiment. Aliquots from the models were examined daily.
Chemical analyses of cholesterol were performed on each sample on the last day of the experiment (day 14), as previously described (G. J. Somjen see above). The samples were collected from the micro wells, centrifuged in an Airfuge (Beckman) at 70,000 rpm for 5 min. Separate determinations were performed on the total sample (before centrifugation) as well as on the supernatant solution. The amount of cholesterol in the precipitated pellets was calculated by subtracting the amounts in the supernatant solutions from the total. […] The crystal mass was also measured spectrophotometrically as the OD difference between day 0 and day 14 of the incubation.
Cholesterol 15 mM, EYL […]. […]
All samples were incubated at 37° C. for 100 hrs. The difference in the optical density between 100 hrs. and 0 hrs.

[2] = Crystal observation time (nucleation time) assay in model bile; conditions: for effect on nucleation time versus control solution: 20% of NaTC replaced by the specific conjugate
Procedure: Aliquots from each model bile were examined daily by polarized light microscopy. COT was defined as the initial time of detection of at least three cholesterol monohydrate crystals per microscopic field at 100 fold magnification.
Cholesterol 15 mM, EYL 30 ml, NaTC 150 mL. […] In the test solutions 20 mole percent of NaTC was replaced by an equimolar amount of each specific fatty acid/bile acid conjugate tested.

[3] = Crystal growth rate (CGR) assay in model bile
Procedure: as §1
Crystal growth was monitored spectrophotometrically using a microplate reader (SPECTRA-STL, Austria) (G. J. Somjen, et al., J. Lipid Res., 38, […] 1048-1052). Aliquots (50 μl) of lipid solutions were mixed and shaken vigorously with equivalent volumes of Na-taurodeoxycholate (200 mM), in microplate wells. After 60 minutes at room temperature, the microplates were shaken again and the absorbance, at 405 nm, in each well was measured. Each model was prepared in triplicate and sampled in duplicate for measurement.
The data were collected and analyzed by an IBM compatible personal computer, and the optical density (OD), averaged for triplicate preparations, was calculated. A graph describing the averaged OD changes for each solution was plotted. The slope in the steepest region of the curve was determined by a linear regression fit to at least three measurements and defined as the CGR. CGR and OD differences between day 0 and day 14 were calculated for each model.

[4] = Cholesterol crystal appearance in pooled native human gallbladder bile; conditions: 10 mM test compound; 37° C.; incubation period of 21 days; control bile showed crystals from day 2
Procedure: Native human gallbladder bile was obtained from cholesterol gallstone patients at cholecystectomy. Pooled bile from several patients was cholesterol enriched by incubation with dried cholesterol or by mixing with a concentrated model bile prior to use in experiments in order to facilitate crystallization.
When the test compound (at a concentration of 10 mM) was incubated with pooled native human gallbladder bile from patients with cholesterol gallstones, the results were as follows:
In the native human bile, from which cholesterol crystals were removed by prior ultracentrifugation for 2 hours, new cholesterol crystals were observed from day 2 of incubation (at 37° C.). Crystal numbers increased progressively reaching a peak of more than 150 crystals per microscopic field on day 14.

[5] = Oral PalC in hamsters, TLC of gallbladder bile; type: in vivo; conditions: per os 10-15 mg/animal/day
Procedure: Male, 6-7 weeks old hamsters weighing 79-83 g were maintained in an animal house with ad libidum access to water and chow.
Test hamsters were given per os by a special syringe 10-15 mg/animal/day of PalC dissolved in 1 ml of saline. Control animals were given an equivalent volume of saline alone. […] On the second day 4 hours after the application of the PalC in saline to the respective animals they were killed by an overdose of chloroform vapors. The abdomens were opened, the bile ducts were tied up, the gallbladders were excised and rinsed twice in saline. They were then placed on the top of conical plastic tubes and incised. The bile was collected at the bottom of the tubes.
Bile samples were centrifuged (Eppendorf centrifuge) for 5 min. at 2000 rpm. Debris was discarded and the supernatant was extracted according to the Folch procedure (chloroform: methanol 2:1). After partition with water, the lipid phase was analyzed by thin layer chromatography on silica gel 60 thin layer plates (Merck). The eluent was dichloromethane:methanol:acetic acid (100:5:1, v:v:v). Samples were compared with a true standard, Reference front (Rf) about 0.2 after development with I2 vapors.

[6] = fed regularly to humans; cited from earlier work
[7] = 20% of Na taurocholate replaced by test compound, vs control model bile
[8] = 10% of NaTC replaced by PalC (B)
[9] = test compound added to whole model bile at 20% of bile salts (F)

**Q.** With CCCCCCCCCCCCCCCCCCCC(=O)N[C@H]1CC[C@@]2(C)[C@@H](C1)C[C@@H](O)[C@@H]1[C@@H]2C[C@H](O)[C@]2(C)[C@@H]([C@H](C)CCC(=O)O)CC[C@@H]12 [C20 conjugate, 3β-Arachidylamido-7α,12α-dihydroxy-5β-cholan-24-oic Acid] as the compound, how does the “final cholesterol crystal mass, % of the control” value ([1]; 20 mole percent of NaTC replaced, 14 days of incubation) read?
**A.** 38%

**Q.** What about the “nucleation time (crystal observation time) prolonged by” value [2, 7] of the same compound?
**A.** more than 360%

**Q.** And the “effect on nucleation time versus control solution” value [2]?
**A.** prolongation of the nucleation time

**Q.** Which “effect on nucleation time versus control solution” value [2] does the source give for CCCCCCCCCCCCCC(=O)N[C@H]1CC[C@@]2(C)[C@@H](C1)C[C@@H](O)[C@@H]1[C@@H]2C[C@H](O)[C@]2(C)[C@@H]([C@H](C)CCC(=O)O)CC[C@@H]12 [Example C14, 3β-Myristylamido-7α,12α-dihydroxy-5β-cholan-24-oic Acid] here?
**A.** did not prolong the nucleation time

**Q.** What does the source list for CCCCCCCCCCCCCCCC(=O)N[C@H]1CC[C@@]2(C)[C@@H](C1)C[C@@H](O)[C@@H]1[C@@H]2C[C@H](O)[C@]2(C)[C@@H]([C@H](C)CCC(=O)O)CC[C@@H]12 [PalC, 3β-Palmitylamido-7α,12α-dihydroxy-5β-cholan-24-oic Acid]?
**A.** crystal growth rate reduced by [3, 8]: 70%; cholesterol crystal growth rate reduced by ([3]; 20% of Na taurocholate replaced by test compound): 67%; cholesterol crystal growth rate reduced by [3, 9]: 59%; cholesterol mass on day 14 reduced by [1, 8]: 17%; total cholesterol crystal mass reduced by ([1]; 20% of Na taurocholate replaced by test compound, 14 days of incubation): 53%; total crystal mass reduced by ([1]; test compound added to whole model bile at 20% of bile salts (F), 14 days of incubation): 51%; new cholesterol crystals during incubation [4]: no cholesterol crystals were seen; behaviour of animals in the course of treatment [5]: behaved normally; presence in gallbladder bile by TLC (absorbed and excreted into bile) ([5]; bile taken on second day 4 hours after application): presence of PalC in the bile; nucleation time (crystal observation time) prolonged by [2, 7]: 167%; effect on nucleation time versus control solution [2]: prolongation of the nucleation time; nucleation time (crystal observation time) prolonged by [2, 9]: 200%

**Q.** For CCCCCCCCCCCCCCCCCC(=O)N[C@H]1CC[C@@]2(C)[C@@H](C1)C[C@@H](NC(=O)CCCCCCCCCCCCCCCCC)[C@@H]1[C@@H]2CC[C@]2(C)[C@@H]([C@H](C)CCC(=O)O)CC[C@@H]12 [distearoyl ursodeoxycholate, 3β,7α-Distearylamido-5β-ursodeoxycholan-24-oic Acid], which “retardation of cholesterol crystallization (nucleation time) versus control model bile and equimolar cholic acid” value ([2]; 20 mole % of NaTC replaced, 37° C.) is on record?
**A.** particularly effective

**Q.** For C[C@H](CCC(=O)O)[C@H]1CC[C@H]2[C@@H]3[C@@H](O)C[C@@H]4C[C@H](O)CC[C@]4(C)[C@H]3CC[C@]12C [ursodeoxycholic acid], which “share of biliary bile acids” value [6] is on record?
**A.** 30-50%
